Tests used:
mouse CB2 receptors = molecular target: T1, mouse CB2 receptors (Mus musculus, UniProt P47936); test: Radioligand saturation binding using mouse spleen tissue WT
T1 construct: from tissue; host or cells: mouse spleen (wild type)
Experimental: (§1) Stably transfected cells or spleen tissue were homogenized in 15 mmol L-1 Hepes, 0.3 mmol L-1 EDTA, 1 mmol L-1 EGTA, 2 mmol L-1 MgCl2, complete EDTA-free protease inhibitor (Roche Applied Science, Rotkreuz, Switzerland), pH 7.4 using a glass potter and centrifugation at 47,800 g at 4° C. for 30 min. The pellet was then rehomogenized twice in the same buffer and centrifuged (47,800 g, 4° C., 30 min). The final pellet was then resuspended in 75 mmol L-1 Tris, 0.3 mmol L-1 EDTA, 1 mmol L-1 EGTA, 12.5 mmol L-1 MgCl2, 250 mmol L-1 sucrose, pH 7.4 at a protein concentration of 1 to 3 mg mL-1, aliquoted, frozen on dry ice and stored at −80° C.
Saturation binding was performed with 0.05 to 2.4 nM compound of formula (I) and 40 μg of membrane protein. CP55940 (10 μM) was used to define nonspecific binding. Assay buffer consisted of 50 mmol L-1 Tris-HCl, 5 mmol L-1 MgCl2, 2.5 mmol L-1 EGTA, and 0.1% fatty acid-free BSA, pH 7.4. Assays were initiated by addition of membranes in a final volume of 250 μl/well. Assays were incubated for 2 h at room temperature and then vacuum filtered and rinsed with wash buffer (50 mmol L-1 Tris-HCl, 5 mmol L-1 MgCl2, 2.5 mmol L-1 EGTA, and 0.5% fatty acid-free BSA, pH 7.4) on a Filtermate cell harvester through Packard GF/B filters presoaked in 0.3% polyethylenimine.

[1] = Radioligand binding using mouse spleen KO (CB2 deficient mice); settings: mouse spleen tissue from CB2 deficient mice, increasing amounts of membranes
Experimental: as §1
(§2) For competition binding, membrane preparations were incubated either with 0.3 nM of [^3H]-CP55940 in the presence or absence of increasing concentrations of unlabeled (R^1═CH3) compound of formula (I) or with 1.5 nM compound of formula (I) and increasing amounts of membranes (2.5-80 μg) in the presence or absence of CP55940 (10 μM) for 60 min at 30° C. in a final volume of 0.2 mL of 50 mmol L-1 Tris-HCl, 5 mmol L-1 MgCl2, 2.5 mmol L-1 EGTA, 0.1% fatty acid-free BSA and 1% DMSO, pH 7.4, buffer, gently shaking. […] IC50 values and Hill slopes were determined by a four parameter logistic model using ActivityBase (ID Business Solution, Ltd.).

CB2 receptors [2] = molecular target: T2, CB2 receptors (Mus musculus, UniProt P47936); test: Radioligand binding (1.5 nM) with increasing amounts of membranes, mouse spleen tissue WT; settings: 1.5 nM radioligand
T2 construct: from tissue; host or cells: mouse spleen (wild type)
Experimental: as §1, §2

CB2 receptors [3] = molecular target: T3, CB2 receptors (Homo sapiens, UniProt P34972); test: Radioligand competition binding of [^3H]-CP55940, CHO-K1 cell membranes; set-up: host or cells: CHO-K1 beta-arrestin cells; settings: [^3H]-CP55940 0.3 nM, n=13
Experimental: (§3) CHO-K1 beta-arrestin cells (DiscoveRx Inc., Fremont, Calif.) expressing human CB1 and human CB2 were cultured in F-12 Nutrient Mixture (HAM) supplemented with 10% FBS, 300 μg ml-1 hygromycin and 800 μg ml-1 geneticin (G418). Cells were incubated in a humidified atmosphere at 37° C. with 5% CO2.
(§4) Stably transfected cells or spleen tissue were homogenized in 15 mmol L-1 Hepes, 0.3 mmol L-1 EDTA, 1 mmol L-1 EGTA, 2 mmol L-1 MgCl2, complete EDTA-free protease inhibitor (Roche Applied Science, Rotkreuz, Switzerland), pH 7.4 using a glass potter and centrifugation at 47,800 g at 4° C. for 30 min. The pellet was then rehomogenized twice in the same buffer and centrifuged (47,800 g, 4° C., 30 min). […]
as §2

human CB1 receptors = molecular target: T4, human CB1 receptors (Homo sapiens, UniProt P21554); test: as above; settings: [^3H]-CP55940 0.3 nM, n=6
T4 construct: host or cells: CHO-K1 beta-arrestin cells
Experimental: as §3, §4, §2

CB2 receptors [4] = molecular target: T3, CB2 receptors; test: Binding of HU-910 / [^3H]-HU-910 to CB2 receptors; settings: CB2 receptors labeled with [^3H]-CP55940

T1 sequence (P47936 whole entry): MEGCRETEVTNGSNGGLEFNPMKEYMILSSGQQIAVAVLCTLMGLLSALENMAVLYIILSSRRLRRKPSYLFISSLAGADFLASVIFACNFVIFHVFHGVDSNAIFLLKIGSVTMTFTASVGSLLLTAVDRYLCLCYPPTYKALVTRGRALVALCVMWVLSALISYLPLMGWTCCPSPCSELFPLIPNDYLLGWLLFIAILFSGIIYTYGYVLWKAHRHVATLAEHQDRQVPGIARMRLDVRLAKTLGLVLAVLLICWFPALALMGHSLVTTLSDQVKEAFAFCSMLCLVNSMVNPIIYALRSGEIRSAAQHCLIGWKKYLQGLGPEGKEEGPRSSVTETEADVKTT
T3 sequence (P34972 whole entry): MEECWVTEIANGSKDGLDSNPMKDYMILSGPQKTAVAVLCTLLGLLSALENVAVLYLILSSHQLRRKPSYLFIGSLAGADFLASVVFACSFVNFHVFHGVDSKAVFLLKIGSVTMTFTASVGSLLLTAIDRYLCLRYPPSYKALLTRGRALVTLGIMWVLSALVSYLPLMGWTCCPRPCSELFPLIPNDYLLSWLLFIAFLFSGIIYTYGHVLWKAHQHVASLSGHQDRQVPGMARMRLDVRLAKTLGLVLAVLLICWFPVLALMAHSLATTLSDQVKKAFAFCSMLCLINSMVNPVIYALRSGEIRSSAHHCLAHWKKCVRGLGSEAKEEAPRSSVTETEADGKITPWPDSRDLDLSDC
T2 sequence (P47936 whole entry): as the sequence (P47936 whole entry) above
T4 sequence (P21554 whole entry): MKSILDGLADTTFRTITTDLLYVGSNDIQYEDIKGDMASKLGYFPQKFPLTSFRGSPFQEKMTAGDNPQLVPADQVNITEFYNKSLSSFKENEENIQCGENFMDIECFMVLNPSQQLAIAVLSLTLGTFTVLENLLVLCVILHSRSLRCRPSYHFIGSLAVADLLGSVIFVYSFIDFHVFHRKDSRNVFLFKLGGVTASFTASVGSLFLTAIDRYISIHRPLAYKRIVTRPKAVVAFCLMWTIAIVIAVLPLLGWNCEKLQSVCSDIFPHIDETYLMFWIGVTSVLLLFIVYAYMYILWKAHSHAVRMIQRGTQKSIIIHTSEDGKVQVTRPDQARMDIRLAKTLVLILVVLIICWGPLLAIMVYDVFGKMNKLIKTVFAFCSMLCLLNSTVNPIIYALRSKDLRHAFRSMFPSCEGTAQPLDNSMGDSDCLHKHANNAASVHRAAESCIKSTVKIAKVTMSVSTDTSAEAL

## [3H]C([3H])([3H])n1c(C(C)(C)C)c/c(=N\C(=O)c2cc(C(F)(F)F)ccc2OCC(C)(C)O)n1CC1CCC1 [Example 1, (NE)-N-[5-tert-butyl-2-(cyclobutylmethyl)-1-(tritritiomethyl)pyrazol-3-ylidene]-2-(2-hydroxy-2-methyl-propoxy)-5-(trifluoromethyl)benzamide]
Mouse CB2 receptors
  saturability of specific binding: saturable
Mouse CB2 receptors; saturation binding
  CB2 receptor expression level (Bmax): 430 fmol/mg
Mouse CB2 receptors; saturation binding, read-out: half maximal affinity (Kd)
  Kd: 0.58 nM
[1]
  specific binding: lack of specific binding
CB2 receptors [2]
  specific binding: high specific binding

## Cn1c(C(C)(C)C)cc(=NC(=O)c2cc(C(F)(F)F)ccc2OCC(C)(C)O)n1CC1CCC1
CB2 receptors [3]
  Ki: 1.07 nM
Human CB1 receptors
  Ki: 3890 nM

## CCCCCCC(C)(C)c1cc(OC)c(C2=C[C@H]3CC[C@]2(CO)C3(C)C)c(OC)c1 [HU-910]
CB2 receptors [4]
  binding to CB2 receptors: selectively and competitively binds to CB2 receptors
